{"source": "patent US9498546B2", "about": "“Synthesis and application of novel imaging agents conjugated to DPA 713 analogs for imaging inflammation” (THE JOHNS HOPKINS UNIVERSITY, priority 2012, dated 2016)", "tested_on": "LPS-stimulated J774 macrophages (TSPO)", "experiment": "In vitro J774 murine macrophage uptake studies (fluorescence microscopy, with or without blocking)", "assay_type": "cell-based", "settings": "40 nM probe, 1 hour of incubation", "protocol": "FIG. 4 is a series of photomicrographs (A-I) of J774 macrophages that were cultured in 8 well chamber slides to 80% confluence. LPS was then added to each well for 24 hours to stimulate the cells. […] The cells were returned to the incubator for either 1 hour or 24 hours. The solutions were then removed, the nuclei were labeled with Hoechst 33342 and the cells were briefly washed before mounting and viewing under a fluorescence microscope.\nIn vitro J774 murine macrophage uptake studies. The immortalized J774 murine macrophage-like cell line was cultured in RPMI1640+20% FBS+1% penicillin+ streptomycin media in 8-well chamber slides (Fisher Scientific) to approximately 80% confluence. The cells were then stimulated with 1 ng/mL of LPS (Sigma, E. coli 055:B5) for 24 hours prior to addition of the probes of the present invention to 40 nM final concentration. […] The cells were exposed to the fluorescent probes and blocking compounds for either 1 hour or 24 hours prior to exposing to 1 ng/mL of Hoechst 33342 dye (Invitrogen), followed by washing twice briefly with PBS, pH 7.5. The chambers were then removed and the slide mounted with Dako Cytomation aqueous mounting media and a glass coverslip. The cells were visualized using a Nikon 80i upright epifluorescence microscope equipped with a Nikon DS-QilMc darkfield CCD camera and processed using Nikon Image Software on an adjacent workstation. The dyes were excited using either a Nikon Intensilight C-HGFI lamp (IRDye680 and Hoechst) or a Sutter Instruments Co. (Novato, Calif.) LB/LB-30 xenon lamp (IRDye800).\nJ774 Cell Uptake Studies. J774 macrophages were cultured in 8 well chamber slides to 80% confluence. LPS was then added to each well for 24 hours to stimulate the cells. […] The cells were returned to the incubator for either 1 hour or 24 hours. The solutions were then removed, the nuclei were labeled with Hoechst 33342 and the cells were briefly washed before mounting and viewing under a fluorescence microscope. […] The tracer localization for both analogs is perinuclear and granular in appearance and is consistent with the gross distribution pattern of TSPO expression in other mononuclear cell-derived lines."}
{"smiles": "CCN(CC)C(=O)Cc1c(-c2ccc(OCCNC(=O)CCCCC[N+]3=C(/C=C/C4=C(Oc5ccc(S(=O)(=O)O)cc5)C(=C/C=C5/N(CCCCS(=O)(=O)O)c6ccc(S(=O)(=O)O)cc6C5(C)C)/CCC4)C(C)(C)c4cc(S(=O)(=O)[O-])ccc43)cc2)nn2c(C)cc(C)nc12", "note": "[DPA-713-IRDye800CW, 1-(6-(2-(4-(3-(2-(diethylamino)-2-oxoethyl)-5,7-dimethylpyrazolo[1,5-a]pyrimidin-2-yl)phenoxy)ethylamino)-6-oxohexyl)-2-((E)-2-((E)-3-((E)-2-(3,3-dimethyl-5-sulfo-1-(4-sulfobutyl)indolin-2-ylidene)ethylidene)-2-(4-sulfophenoxyl)cyclohex-1-enyl)vinyl)-3,3-dimethyl-3H-indolium-5-sulfonate]", "values": [{"measurement": "Observable fluorescence signal (uptake)", "result": "almost no observable signal"}]}
